For 48 compounds, EC50 results are on record in US10214544B2, “Imidazopyridazine and imidazothiadiazole compounds” (Universite de Montreal, priority 2015, dated 2019).

Molecules are shown by their SMILES.

PAR4, sequence (Q96RI0 18-385): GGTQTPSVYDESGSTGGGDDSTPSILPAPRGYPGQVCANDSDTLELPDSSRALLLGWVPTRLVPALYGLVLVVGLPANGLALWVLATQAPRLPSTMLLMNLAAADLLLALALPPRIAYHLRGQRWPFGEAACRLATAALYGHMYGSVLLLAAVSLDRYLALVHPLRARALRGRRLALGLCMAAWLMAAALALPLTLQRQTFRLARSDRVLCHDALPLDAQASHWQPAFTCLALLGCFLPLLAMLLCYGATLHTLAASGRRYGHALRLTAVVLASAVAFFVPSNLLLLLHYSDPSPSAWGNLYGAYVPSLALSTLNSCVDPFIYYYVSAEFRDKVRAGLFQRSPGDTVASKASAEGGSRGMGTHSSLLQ

This assay concerns the target PAR4 (Homo sapiens (Human), UniProt Q96RI0). As to the kind of experiment: FLIPR assay in PAR4-expressing HEK293 cells (PAR4 antagonist activity). The format is cell-based. Conditions: inhibition of H-Ala-Phe(4-F)-Pro-Gly-Trp-Leu-Val-Lys-Asn-Gly-NH2-induced intracellular calcium mobilization. An excerpt: The FLIPR assay is an exemplary in vitro assay for measuring the activity of the PAR4 antagonists of the present invention. In this assay, intracellular calcium mobilization is induced in PAR4 expressing cells by a PAR4 agonist and calcium mobilization is monitored. See, e.g., Example A.
HEK293 cells stably expressing PAR4 were generated by a standard method of transfection of human PAR4 (F2R23) cDNA expression vector and selected based on PAR4 protein expression or mRNA expression. […] These cells also express endogenous PAR1 and can elicit calcium signal upon stimulation with PAR1 agonist peptide. Therefore, the same cells were also used to determine selectivity against PAR1 and agonist activity for both receptors. Cells from HEK293 PAR4 Clone 1.2A (BMS Arctic ID 383940) were propagated and used for calcium mobilization studies.
FLIPR-based calcium mobilization assay in HEK293 cells was used to measure PAR4 antagonism, agonism, and selectivity against PAR1. The activity of the PAR4 antagonists of the present invention were tested in PAR4 expressing cells by monitoring H-Ala-Phe(4-F)-[…]NH2-induced intracellular calcium mobilization. Counter screens for agonist activity and PAR1 antagonist activity were also performed. Briefly, PAR1/PAR4-expressing HEK293 cells were grown in DMEM (Life Technology, Grand Island, N.Y.) containing 10% heat-inactivated FBS, 1% Penicillin-Streptomycin, 10 μg/mL blasticidin, and 100 μg/mL Zeocin at 37° C. with 5% CO2. Cells were plated overnight prior to the experiment in a black 384-well Purecoat Amine clear bottom plate (Becton Dickinson Biosciences, San Jose, Calif.) at 10,000 cells/well in 30 μL growth medium and incubated in a humidified chamber at 37° C. with 5% CO2 overnight. Prior to compound addition, the cell medium was replaced with […] of 1× calcium and magnesium-containing Hank's Balanced Saline Solution (HBSS) (with 20 mM HEPES) and 1:1000 diluted fluorescent calcium indicator (Codex Biosolutions, Gaithersburg, Md.). After a 30 minute incubation period at 37° C. and a further 30 minute incubation and equilibration period at room temperature, 20 μL test compound (diluted in 1× HBSS buffer) was added at various concentrations at 0.17% dimethyl sulfoxide (DMSO) final concentration. Changes in fluorescence intensity were measured using a Functional Drug Screening System (FDSS, Hamamatsu, Japan) to determine agonist activities. The cells were then incubated for 30 minutes at room temperature followed by addition of 20 μL of agonist peptide for antagonist activity measurement. […] Compound potency was derived from 11-point concentration-response curves.
The following Table sets out results obtained employing various compounds of the invention tested in the FLIPR assay. As indicated above, the FLIPR assay, an in vitro assay, measures the PAR4 antagonist activity of compounds tested as described in Example A.
Take `COc1cc(OCc2cccc(NC(=O)c3ccc(OC)nc3)c2)c2cc(-c3cn4nc(OC)sc4n3)oc2c1` [Example 46]: the EC50 is 1.1 nM. As to `COc1cc(OCc2cccc(NC(=O)Cc3cc(C)no3)c2)c2cc(-c3cn4nc(OC)sc4n3)oc2c1` [Example 47], the EC50 is 6.9 nM. For the compound `COc1cc(OCc2cccc(NC(=O)c3ccnc(F)c3)c2)c2cc(-c3cn4nc(OC)sc4n3)oc2c1` [Example 48], the EC50 stood at 2.7 nM.

In the case of `COc1cc(OCc2cccc(NC(=O)Cc3nc(C)sc3C)c2)c2cc(-c3cn4nc(OC)sc4n3)oc2c1` [Example 49], the EC50 worked out at 0.85 nM. Turning to `COc1cc(OCc2cccc(NC(=O)c3sc(C)nc3C)c2)c2cc(-c3cn4nc(OC)sc4n3)oc2c1` [Example 50], the half-maximal effective concentration (EC50) came out at 7.4 nM. On to `COc1cc(OCc2cccc(NC(=O)c3ccc(Oc4ccccc4)nc3)c2)c2cc(-c3cn4nc(OC)sc4n3)oc2c1` [Example 51], for which the EC50 is 2.3 nM. As to `COc1nn2cc(-c3cc4c(OCc5cccc(NC(=O)c6ccccc6)c5)cccc4o3)nc2s1` [Example 52], the concentration giving a half-maximal response (EC50) turned out to be 0.41 nM. In the case of `COc1cc(OCc2cccc(NC(=O)c3ccc(Cl)nc3)c2)c2cc(-c3cn4nc(OC)sc4n3)oc2c1` [Example 53], the EC50 amounted to 3.5 nM.

`COc1cc(OCc2cccc(NC(=O)c3cc(Cl)nc(Cl)c3)c2)c2cc(-c3cn4nc(OC)sc4n3)oc2c1` [Example 55]: the EC50 amounted to 1.1 nM. On to `COc1cc(OCc2cccc(NC(=O)c3ccnc(O)c3)c2)c2cc(-c3cn4nc(OC)sc4n3)oc2c1` [Example 56], for which the EC50 is 5.5 nM. `COc1cc(OCc2cccc(NC(=O)c3cncnc3)c2)c2cc(-c3cn4nc(OC)sc4n3)oc2c1` [Example 57]: the EC50 turned out to be 1.8 nM. As for `COc1cc(OCc2cccc(NC(=O)c3cccnc3Cl)c2)c2cc(-c3cn4nc(OC)sc4n3)oc2c1` [Example 58], the EC50 came to 0.74 nM. For `COc1cc(OCc2cccc(NC(=O)c3c(C)noc3-c3ccccc3)c2)c2cc(-c3cn4nc(OC)sc4n3)oc2c1` [Example 59], the EC50 stood at 3.5 nM.

Consider `COc1cc(OCc2cccc(NC(=O)c3cnoc3-c3ccccc3)c2)c2cc(-c3cn4nc(OC)sc4n3)oc2c1` [Example 60], for which the EC50 turned out to be 2.9 nM.

On to `COc1cc(OCc2cccc(NC(=O)c3cccnc3F)c2)c2cc(-c3cn4nc(OC)sc4n3)oc2c1` [Example 61], for which the EC50 was 1.5 nM. As to `COc1cc(OCc2cccc(NC(=O)c3cc(OCc4ccccc4)cc(C(F)(F)F)c3)c2)c2cc(-c3cn4nc(OC)sc4n3)oc2c1` [Example 62], the EC50 was determined as 57 nM. For the compound `COc1cc(Cl)cc(C(=O)Nc2cccc(COc3cc(OC)cc4oc(-c5cn6nc(OC)sc6n5)cc34)c2)c1` [Example 63], the EC50 amounted to 1.4 nM. Turning to `COc1cc(OCc2cccc(NC(=O)c3ccc(C)nc3Cl)c2)c2cc(-c3cn4nc(OC)sc4n3)oc2c1` [Example 64], the EC50 came to 1.4 nM. For `COc1cc(OCc2cccc(NC(=O)c3ccc(Br)cn3)c2)c2cc(-c3cn4nc(OC)sc4n3)oc2c1` [Example 65], the EC50 is 1.1 nM. As to `COc1cc(OCc2cccc(NC(=O)c3cnc(-c4ccccc4)nc3C)c2)c2cc(-c3cn4nc(OC)sc4n3)oc2c1` [Example 66], the 50% effective concentration (EC50) worked out at 5.7 nM. The result for `COc1cc(OCc2cccc(NC(=O)c3cc(Cl)cc(OCc4ccccc4)c3)c2)c2cc(-c3cn4nc(OC)sc4n3)oc2c1` [Example 67] reads 680 nM; that for `COc1cc(OCc2cccc(NC(=O)c3cn4nc(C(C)(F)F)sc4n3)c2)c2cc(-c3cn4nc(OC)sc4n3)oc2c1` [Example 68], 8.9 nM; that for `COc1cc(OCc2cccc(NC(=O)c3ccnnc3)c2)c2cc(-c3cn4nc(OC)sc4n3)oc2c1` [Example 69], 12 nM.

As to `COc1cc(OCc2cccc(NC(=O)c3csc(C(F)(F)F)n3)c2)c2cc(-c3cn4nc(OC)sc4n3)oc2c1` [Example 70], the EC50 came to 1 nM. Take `COc1cc(OCc2cccc(NC(=O)c3cc(C)cc(C(F)(F)F)c3)c2)c2cc(-c3cn4nc(OC)sc4n3)oc2c1` [Example 71]: the EC50 worked out at 1.9 nM. As to `COc1cc(OCc2cccc(NC(=O)c3csc(-c4ccccc4)n3)c2)c2cc(-c3cn4nc(OC)sc4n3)oc2c1` [Example 72], the EC50 was 2.2 nM. For `COc1cc(OCc2cccc(NC(=O)c3ccc(C)nc3O)c2)c2cc(-c3cn4nc(OC)sc4n3)oc2c1` [Example 73], the half-maximal effective concentration (EC50) amounted to 3.6 nM. Consider `COc1cc(OCc2cccc(NC(=O)c3cc(OC(F)F)cc(C(F)(F)F)c3)c2)c2cc(-c3cn4nc(OC)sc4n3)oc2c1` [Example 74], for which the EC50 is 0.95 nM. Consider `COc1cc(OCc2cccc(NC(=O)c3cc(F)ccc3C)c2)c2cc(-c3cn4nc(OC)sc4n3)oc2c1` [Example 75], for which the EC50 was determined as 1.7 nM.

With `COc1cc(OCc2cccc(NC(=O)c3cc(F)cc(OC(F)(F)F)c3)c2)c2cc(-c3cn4nc(OC)sc4n3)oc2c1` [Example 76], the EC50 stood at 2.5 nM. With `COc1cc(OCc2cccc(NC(=O)c3csc(-c4ccc(F)cc4)n3)c2)c2cc(-c3cn4nc(OC)sc4n3)oc2c1` [Example 77], the EC50 was found to be 120 nM. For the compound `COc1cc(OC(F)F)cc(C(=O)Nc2cccc(COc3cc(OC)cc4oc(-c5cn6nc(OC)sc6n5)cc34)c2)c1` [Example 78], the EC50 was 2.3 nM. The value for `COc1cc(OCc2cccc(NC(=O)c3csc(-c4cccc(C(F)(F)F)c4)n3)c2)c2cc(-c3cn4nc(OC)sc4n3)oc2c1` [Example 80] was 94 nM; that for `COc1cc(OCc2cccc(N(C)C(=O)OC(C)(C)C)c2)c2cc(-c3cn4nc(OC)sc4n3)oc2c1` [Example 81, tert-Butyl (3-(((6-methoxy-2-(2-methoxyimidazo[2,1-b][1,3,4]thiadiazol-6-yl)benzofuran-4-yl)oxy)methyl)phenyl)(methyl)carbamate] was 4.8 nM; that for `CNc1cccc(COc2cc(OC)cc3oc(-c4cn5nc(OC)sc5n4)cc23)c1` [Example 82, 3-(((6-Methoxy-2-(2-methoxyimidazo[2,1-b][1,3,4]thiadiazol-6-yl)benzofuran-4-yl)oxy)methyl)-N-methylaniline] was 5.2 nM. `COc1cc(OCc2cccc(N(C)C(=O)c3ccccc3)c2)c2cc(-c3cn4nc(OC)sc4n3)oc2c1` [Example 83, N-(3-(((6-methoxy-2-(2-methoxyimidazo[2,1-b][1,3,4]thiadiazol-6-yl)benzofuran-4-yl)oxy)methyl)phenyl)-N-methylbenzamide]: the EC50 worked out at 4.1 nM. The value for `COc1cc(OCc2cccc(N(C)C(=O)c3ccccc3C)c2)c2cc(-c3cn4nc(OC)sc4n3)oc2c1` [Example 84] was 2.5 nM; that for `COc1cc(OCc2cccc(N(C)C(=O)c3cccc(F)c3)c2)c2cc(-c3cn4nc(OC)sc4n3)oc2c1` [Example 85] was 6.1 nM. `COc1cc(OCc2cccc(N(C)C(=O)c3ccccc3OC)c2)c2cc(-c3cn4nc(OC)sc4n3)oc2c1` [Example 86]: the 50% effective concentration (EC50) is 1.8 nM.

With `COc1cc(OCc2cccc(N(C)C(=O)c3ccc(F)cc3)c2)c2cc(-c3cn4nc(OC)sc4n3)oc2c1` [Example 87], the EC50 turned out to be 5.7 nM. The result for `COc1cc(OCc2cccc(N(C)C(=O)c3ccccc3F)c2)c2cc(-c3cn4nc(OC)sc4n3)oc2c1` [Example 88] reads 3.3 nM; that for `COc1cc(OCc2cccc(N(C)C(=O)c3ccc(C)cc3)c2)c2cc(-c3cn4nc(OC)sc4n3)oc2c1` [Example 89], 3.5 nM; that for `COc1cc(OCc2cccc(N(C)C(=O)c3ccc(OC)nc3)c2)c2cc(-c3cn4nc(OC)sc4n3)oc2c1` [Example 90], 1.1 nM. As to `COc1cc(OCc2cccc(N(C)S(=O)(=O)c3ccccc3)c2)c2cc(-c3cn4nc(OC)sc4n3)oc2c1` [Example 91], the EC50 amounted to 2 nM.

On to `COc1cc(OCc2cccc(N(C)C(=O)c3cncnc3)c2)c2cc(-c3cn4nc(OC)sc4n3)oc2c1` [Example 92], for which the EC50 worked out at 3.5 nM. Regarding `COc1cc(OCc2cccc(N(C)C(=O)c3sc(C)nc3C)c2)c2cc(-c3cn4nc(OC)sc4n3)oc2c1` [Example 93], the EC50 was 4.8 nM. The result for `COc1cc(OCc2cccc(N(C)C(C)=O)c2)c2cc(-c3cn4nc(OC)sc4n3)oc2c1` [Example 94] reads 3.8 nM; that for `COc1cc(OCc2cccc(N(C)C=O)c2)c2cc(-c3cn4nc(OC)sc4n3)oc2c1` [Example 97], 2.5 nM.

Usually EC50 stands for the concentration that produces a half-maximal response.
